Experimental data as given in ChEMBL document CHEMBL1134828, “The synthesis of cyclic tetrapeptoid analogues of the antiprotozoal natural product apicidin” (2001).
≈ marks a conversion by molar mass, not a printed value.

How the values were obtained:
Plasmodium falciparum = experiment: Effective dose for antimalarial activity against Plasmodium falciparum; assay type: functional; conditions: read-out: ED50
Trypanosoma cruzi [1] = experiment: Effective dose required for antiprotozoal activity against Trypanosoma cruzi; T: Toxicity to both mouse macrophage host cells and intracellular parasites prevented determination of antiprotozoal activity; assay type: functional, organism-based
Trypanosoma brucei = experiment: Effective dose required for antiprotozoal activity against Trypanosoma brucei; assay type: functional; conditions: read-out: ED50
Leishmania donovani [2] = experiment: Effective dose required for antiprotozoal activity against Leishmania donovani; T: Toxicity to both mouse macrophage host cells and intracellular parasites prevented determination of antiprotozoal activity; assay type: functional, organism-based
[3] = Cytotoxicity tested against KB cells of human nasopharyngeal epithelial cell line; assay type: functional; conditions: read-out: ED50 (the source's name)
Leishmania donovani [4] = experiment: Effective dose required for antiprotozoal activity against Leishmania donovani; assay type: functional; conditions: read-out: ED50
Trypanosoma cruzi [5] = experiment: Effective dose required for antiprotozoal activity against Trypanosoma cruzi; assay type: functional; conditions: read-out: ED50

| SMILES | EC50 (Plasmodium falciparum) | ED50 (Trypanosoma cruzi [1]) | EC50 (Trypanosoma brucei) | ED50 (Leishmania donovani [2]) | EC50 [3] | EC50 (Leishmania donovani [4]) | EC50 (Trypanosoma cruzi [5]) |
| --- | --- | --- | --- | --- | --- | --- | --- |
| CCC(=O)CCCCC[C@@H]1NC(=O)[C@H]2CCCCN2C(=O)[C@H]([C@@H](C)CC)NC(=O)[C@H](Cc2cn(OC)c3ccccc23)NC1=O [APICIDIN] | 0.22 µg/mL (≈ 0.353 µM) | Toxic | 1.9 µg/mL (≈ 3.05 µM) | Toxic | 200 µg/mL (≈ 321 µM) |  |  |
| CCC(=O)CCCCC[C@@H]1NC(=O)[C@H]2CCCN2C(=O)[C@H]([C@@H](C)CC)NC[C@H](Cc2c[nH]c3ccccc23)NC1=O | > 1 µg/mL |  | 11.1 µg/mL (≈ 19.6 µM) |  |  | > 30 µg/mL | > 30 µg/mL |
| CCC(=O)CCCCC[C@@H]1NC(=O)[C@H]2CCCN2C(=O)[C@H]([C@@H](C)CC)N(C(C)=O)C[C@H](Cc2c[nH]c3ccccc23)NC1=O | > 1 µg/mL |  | 13 µg/mL (≈ 21.3 µM) |  |  | > 30 µg/mL | > 30 µg/mL |
